We go through 37 compounds from US20250152574A1 (BIOGEN MA INC., priority 2022, published 2025).

In the assay the target is T1, EBP (Homo sapiens, UniProt Q15125).
T1 construct: HEK293T cells were utilized as the source of EBP enzyme; endogenous in cells; host or cells: HEK293T
Kind of assay: EBP Functional Assay (EBP immunoaffinity LC-MS assay). Type of assay: biochemical. Conditions: HEK293T cells as source of EBP enzyme; substrate zymosterol-d5, 37° C. for 4 h; percent conversion to dehydrolathosterol-d5 by LC-APCI MRM MS. On the procedure: The EBP immunoaffinity (IA) LC-MS assay measures the potency of small molecule inhibitors of EBP by quantifying their concentration-dependent changes in the enzyme's substrate and product using liquid chromatography atmospheric pressure chemical ionization multiple reaction monitoring mass spectrometry (LC-APCI MRM MS). HEK293T cells were utilized as the source of EBP enzyme. The enzyme was incubated with the small molecule inhibitors at variable concentrations for 30 min. Deuterated form of EBP substrate, zymosterol-d5 (Avanti Polar Lipids, Cat #700068P-1 mg), was then added and the plate was incubated at 37° C. for 4 h. Finally, the sterol isomers were extracted and injected to LC-APCI MRM MS. MRM transition used for the quantification for both zymosterol and […] (substrate and product of EBP enzymatic reaction, respectively) is 372.3-203.2, CE 30 and DP 80 in positive ion mode. Percent conversion of the zymosterol-d5 to dehydrolathosterol-d5 was used to derive IC50 curves. Tasin-1 (1′-[(4-Methoxyphenyl)sulfonyl]-4-methyl-1,4′-bipiperidine, CAS 792927-06-1) was used as the reference small molecule inhibitor.
Percent conversion versus the compound concentration data were fit to the following 4-parameter logistic model to generate IC50 curves: […]

T1 sequence (Q15125 whole entry): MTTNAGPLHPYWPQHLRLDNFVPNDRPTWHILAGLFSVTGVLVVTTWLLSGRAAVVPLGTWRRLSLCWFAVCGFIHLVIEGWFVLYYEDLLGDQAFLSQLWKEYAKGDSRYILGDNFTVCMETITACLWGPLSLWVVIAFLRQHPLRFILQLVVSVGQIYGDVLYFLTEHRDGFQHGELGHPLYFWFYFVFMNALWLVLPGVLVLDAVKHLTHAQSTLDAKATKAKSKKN

What is called IC50 is the concentration at which inhibition is half-maximal. A higher IC50 goes with a need for much substance. `Cc1cc(OC(F)(F)F)ccc1S(=O)(=O)N1CCC2(CC1)CC(N1CCOCC1)CO2` (stereo not shown) [Example 54, 8-((2-Methyl-4-(trifluoromethoxy)phenyl)sulfonyl)-3-morpholino-1-oxa-8-azaspiro[4.5]decane] came in with an IC50 of 250 to 1500 nM.
The same measure for `O=S(=O)(c1ccc2ccoc2c1)N1CCC2(CCC(N3CC4(COC4)C3)C2)CC1` (stereo not shown) [Example 135, 6-(8-(benzofuran-6-ylsulfonyl)-8-azaspiro[4.5]decan-2-yl)-2-oxa-6-azaspiro[3.3]heptane]: 100 to 250 nM; for `Cc1cnc(S(=O)(=O)N2CCC3(CCC(N4CCOCC4)C3)CC2)c(C)c1` (stereo not shown) [Example 25, 4-(8-((3,5-Dimethylpyridin-2-yl)sulfonyl)-8-azaspiro[4.5]decan-2-yl)morpholine]: 100 to 250 nM; for `COc1cc(S(=O)(=O)N2CCC3(CCC(N4CC5(COC5)C4)C3)CC2)c(F)cn1` (stereo not shown) [Example 113]: under 100 nM.
In turn, `CC1(O)CCN([C@@H]2COC3(CCN(S(=O)(=O)c4cc(C#N)ccc4F)CC3)C2)CC1` (single isomer, unassigned) [Example 141] displayed a half-inhibitory concentration (IC50) of 250 to 1500 nM.
`N#Cc1ccc(S(=O)(=O)N2CCC3(CCC(N4CC5(COC5)C4)C3)CC2)c(Cl)c1` (stereo not shown) [Example 126, 4-((2-(2-oxa-6-azaspiro[3.3]heptan-6-yl)-8-azaspiro[4.5]decan-8-yl)sulfonyl)-3-chlorobenzonitrile] came in with a half-inhibitory concentration (IC50) of 100 to 250 nM.
Under `Cc1cc(S(=O)(=O)N2CCC3(CCC(N4CCC(C)(O)CC4)C3)CC2)n(C)n1` (stereo not shown) [Example 84, 1-(8-((1,3-dimethyl-1H-pyrazol-5-yl)sulfonyl)-8-azaspiro[4.5]decan-2-yl)-4-methylpiperidin-4-ol] stands 100 to 250 nM; under `COc1cc(S(=O)(=O)N2CCC3(CCC(N4CC5(COC5)C4)C3)CC2)ccn1` (stereo not shown) [Example 112], under 100 nM.
`COc1ncc(Cl)cc1S(=O)(=O)N1CCC2(CC1)CC(N1CC(OC)C1)CO2` (stereo not shown) [Example 61, 8-((5-Chloro-2-methoxypyridin-3-yl)sulfonyl)-3-(3-methoxyazetidin-1-yl)-1-oxa-8-azaspiro[4.5]decane] yielded an IC50 of 250 to 1500 nM.
Under `N#Cc1ccc(Cl)c(S(=O)(=O)N2CCC3(CC2)CC(N2CC4(COC4)C2)CO3)c1` (stereo not shown) [Example 64, 3-((3-(2-Oxa-6-azaspiro[3.3]heptan-6-yl)-1-oxa-8-azaspiro[4.5]decan-8-yl)sulfonyl)-4-chlorobenzonitrile] stands 250 to 1500 nM; under `N#Cc1cc(F)cc(S(=O)(=O)N2CCC3(CCC(N4CC5(COC5)C4)C3)CC2)c1` (stereo not shown) [Example 13], 100 to 250 nM.
`Cc1ccc(S(=O)(=O)N2CCC3(CC2)C[C@@H](N2CC(O)C2)CO3)c(Cl)c1` (single isomer, unassigned) [Example 53a] came in with an IC50 of under 100 nM.
Under `O=S(=O)(c1cc2cccnc2cc1F)N1CCC2(CCC(N3CC4(COC4)C3)C2)CC1` (stereo not shown) [Example 102, 6-(8-((7-fluoroquinolin-6-yl)sulfonyl)-8-azaspiro[4.5]decan-2-yl)-2-oxa-6-azaspiro[3.3]heptane] stands 100 to 250 nM; under `Cn1nc(C(F)(F)F)cc1S(=O)(=O)N1CCC2(CC1)CC(NC1CC3(COC3)C1)CO2` (stereo not shown) [Example 139, 8-((1-methyl-3-(trifluoromethyl)-1H-pyrazol-5-yl)sulfonyl)-N-(2-oxaspiro[3.3]heptan-6-yl)-1-oxa-8-azaspiro[4.5]decan-3-amine], 100 to 250 nM.
The same measure for `N#Cc1cc(F)cc(S(=O)(=O)N2CCC3(CC2)CC(N2CC4(COC4)C2)C3)c1` [Example 96, 3-((2-(2-oxa-6-azaspiro[3.3]heptan-6-yl)-7-azaspiro[3.5]nonan-7-yl)sulfonyl)-5-fluorobenzonitrile]: 250 to 1500 nM.
Under `Cc1ccc(S(=O)(=O)N2CCC3(CC2)C[C@H](N2CC(O)C2)CO3)c(Cl)c1` (single isomer, unassigned) [Example 53b] stands 100 to 250 nM.
With `O=S(=O)(c1ccc(OC(F)F)cc1)N1CCC2(CC[C@H](N3C[C@@H]4C[C@H]3CO4)C2)CC1` (single isomer, unassigned) [Example 90b], the concentration for half-maximal inhibition (IC50) is under 100 nM.
Consider `Cc1ccc(S(=O)(=O)N2CCC3(CC2)CC(N2CC(C)(O)C2)CO3)c(Cl)c1` (stereo not shown) [Example 50, 1-(8-((2-Chloro-4-methylphenyl)sulfonyl)-1-oxa-8-azaspiro[4.5]decan-3-yl)-3-methylazetidin-3-ol], for which the IC50 fell in the range of 100 to 250 nM.
The same measure for `O=S(=O)(c1ccc(OC(F)F)cc1)N1CCC2(CC1)CC(N1CC3(CCCOC3)C1)CO2` (stereo not shown) [Example 143, 8-((4-(difluoromethoxy)phenyl)sulfonyl)-3-(6-oxa-2-azaspiro[3.5]nonan-2-yl)-1-oxa-8-azaspiro[4.5]decane]: 100 to 250 nM.
Under `COc1ccc(S(=O)(=O)N2CCC3(CCC(N4CC5(COC5)C4)C3)CC2)c(F)c1` (stereo not shown) [Example 129, 6-(8-((2-fluoro-4-methoxyphenyl)sulfonyl)-8-azaspiro[4.5]decan-2-yl)-2-oxa-6-azaspiro[3.3]heptane] stands under 100 nM; under `COc1ncc(C)cc1S(=O)(=O)N1CCC2(CCC(NC3(C)COC3)C2)CC1` (stereo not shown) [Example 41], 100 to 250 nM.
Under `N#Cc1cc(S(=O)(=O)N2CCC3(CCC(N4CC5(COC5)C4)C3)CC2)ccc1F` (stereo not shown) [Example 127, 5-((2-(2-oxa-6-azaspiro[3.3]heptan-6-yl)-8-azaspiro[4.5]decan-8-yl)sulfonyl)-2-fluorobenzonitrile] stands 250 to 1500 nM.
Turning to `COc1ncc(C)cc1S(=O)(=O)N1CCC2(CCC(NC3(C)CCOC3)C2)CC1` (stereo not shown) [Example 42], the IC50 is under 100 nM.
The same measure for `Cc1cc(S(=O)(=O)N2CCC3(CC[C@@H](N4CCOCC4)C3)CC2)n(C)n1` (single isomer, unassigned) [Example 22a]: 250 to 1500 nM.
The same measure for `COc1ccc(S(=O)(=O)N2CCC3(CCC(N4CC5(COC5)C4)C3)CC2)cn1` (stereo not shown) [Example 110]: 100 to 250 nM; for `Cn1nc2c(c1S(=O)(=O)N1CCC3(CCC(N4CCOCC4)C3)CC1)COCC2` (stereo not shown) [Example 24, 2-Methyl-3-((2-morpholino-8-azaspiro[4.5]decan-8-yl)sulfonyl)-2,4,6,7-tetrahydropyrano[4,3-c]pyrazole]: 250 to 1500 nM; for `COc1ccc(S(=O)(=O)N2CCC3(CC2)CC(N2CCOCC2)CO3)c(C)n1` (stereo not shown) [Example 20, 8-((6-Methoxy-2-methylpyridin-3-yl)sulfonyl)-3-morpholino-1-oxa-8-azaspiro[4.5]decane]: 250 to 1500 nM.
The same measure for `COCCN(C)C1COC2(CCN(S(=O)(=O)c3cc(C)cnc3OC)CC2)C1` (stereo not shown) [Example 67, 8-((2-Methoxy-5-methylpyridin-3-yl)sulfonyl)-N-(2-methoxyethyl)-N-methyl-1-oxa-8-azaspiro[4.5]decan-3-amine]: 250 to 1500 nM; for `COCCN(C)C1CCC2(CCN(S(=O)(=O)c3ccc(OC)nc3C)CC2)C1` (stereo not shown) [Example 100, 8-((6-methoxy-2-methylpyridin-3-yl)sulfonyl)-N-(2-methoxyethyl)-N-methyl-8-azaspiro[4.5]decan-2-amine]: under 100 nM.
`Cc1nc(C(F)(F)F)ncc1S(=O)(=O)N1CCC2(CC1)CC(N(C)C1CC3(COC3)C1)CO2` (stereo not shown) [Example 140, N-methyl-8-((4-methyl-2-(trifluoromethyl)pyrimidin-5-yl)sulfonyl)-N-(2-oxaspiro[3.3]heptan-6-yl)-1-oxa-8-azaspiro[4.5]decan-3-amine] displayed an IC50 of under 100 nM.
Under `O=S(=O)(c1cccc2ccnn12)N1CCC2(CCC(N3CC4(COC4)C3)C2)CC1` (stereo not shown) [Example 131, 6-(8-(pyrazolo[1,5-a]pyridin-7-ylsulfonyl)-8-azaspiro[4.5]decan-2-yl)-2-oxa-6-azaspiro[3.3]heptane] stands 100 to 250 nM; under `O=S(=O)(c1ccc(OC(F)F)cc1)N1CCC2(CC[C@@H](N3C[C@@H]4C[C@H]3CO4)C2)CC1` (single isomer, unassigned) [Example 90a], 100 to 250 nM; under `COc1cc(S(=O)(=O)N2CCC3(CCC(N4CCOCC4)C3)CC2)n(C)n1` (stereo not shown) [Example 26, 4-(8-((3-Methoxy-1-methyl-1H-pyrazol-5-yl)sulfonyl)-8-azaspiro[4.5]decan-2-yl)morpholine], under 100 nM.
Under `Cc1nc(C(F)(F)F)ccc1S(=O)(=O)N1CCC2(CC1)CC(NC1CC3(COC3)C1)CO2` (stereo not shown) [Example 137, 8-((2-methyl-6-(trifluoromethyl)pyridin-3-yl)sulfonyl)-N-(2-oxaspiro[3.3]heptan-6-yl)-1-oxa-8-azaspiro[4.5]decan-3-amine] stands 250 to 1500 nM; under `Cn1nc(C(F)F)cc1S(=O)(=O)N1CCC2(CCC(N3CC4(COC4)C3)C2)CC1` (stereo not shown) [Example 125, 6-(8-((3-(difluoromethyl)-1-methyl-1H-pyrazol-5-yl)sulfonyl)-8-azaspiro[4.5]decan-2-yl)-2-oxa-6-azaspiro[3.3]heptane], under 100 nM.
Under `Cc1cc(S(=O)(=O)N2CCC3(CC2)C[C@H](N2CC[C@@]4(CCOC4)C2)CO3)n(C)n1` (single isomer, unassigned) [Example 72a] stands 100 to 250 nM; under `COC1CN(C2COC3(CCN(S(=O)(=O)c4cc(C5CC5)nn4C)CC3)C2)C1` (stereo not shown) [Example 58, 8-((3-Cyclopropyl-1-methyl-1H-pyrazol-5-yl)sulfonyl)-3-(3-methoxyazetidin-1-yl)-1-oxa-8-azaspiro[4.5]decane], 250 to 1500 nM.
